# Results: patent US6248739A, “Quinolinecarboxamides as antiviral agents” (Pharmacia & Upjohn Company, priority 1999, dated 2001)
# Molecular target: T1, HCMV polymerase (Human cytomegalovirus, UniProt P08546)
# T1 construct: made in house; host or cells: recombinant baculovirus-infected SF-9 insect cells
# Assay: biochemical
# Conditions: HCMV polymerase; SPA; modified assay: compounds in 100% DMSO, 4.5 mM DTT
# Description: The HCMV polymerase assay is performed using a scintillation proximity assay (SPA) as described in several references, such as N. D. Cook, et al., Pharmaceutical Manufacturing International, pages 49-53 (1992); K. Takeuchi, Laboratory Practice, September issue (1992); U.S. Pat. No. 4,568,649 (1986); which are incorporated by reference herein. Reactions are performed in 96-well plates. The assay is conducted in 100 μl volume with 5.4 mM HEPES (pH 7.5), 11.7 mM KCl, 4.5 mM MgCl2, 0.36 mg/ml BSA, and 90 nM ^3 H-dTTP. Assays are run with and without CHAPS, (3-[(3-Cholamidopropyl)dimethylammonio]-1-propane-sulfonate) at a final concentration of 2 mM. HCMV polymerase is diluted in enzyme dilution buffer containing 50% glycerol, 250 mM NaCl, 10 mM HEPES (pH 7.5), 100 μg/ml BSA, and 0.01% sodium azide. The HCMV polymerase, which is expressed in recombinant baculovirus-infected SF-9 cells and purified according to literature procedures, is added at 10% (or 10 μl) of the final reaction volume, i.e., 100 μl. Compounds are diluted in 50% DMSO and 10 μl are added to each well. Control wells contain an equivalent concentration of DMSO. Unless noted otherwise, reactions are initiated via the addition of 6 nM biotinylated poly(dA)-oligo(dT) template/primer to reaction mixtures containing the enzyme, substrate, and compounds of interest. Plates are incubated in a 25 C. or 37 C. H2 O bath and terminated via the addition of 40 μl/reaction of 0.5 M EDTA (pH 8) per well. Reactions are terminated within the time-frame during which substrate incorporation is linear and varied depending upon the enzyme and conditions used, i.e., 30 min. for HCMV polymerase. Ten μl of streptavidin-SPA beads (20 mg/ml in PBS/10% glycerol) are added following termination of the reaction. Plates are incubated 10 min. at 37 C., then equilibrated to room temperature, and counted on a Packard Topcount. Linear regressions are performed and IC50 's are calculated using computer software.
# A modified version of the above HCMV polymerase assay is performed as described above, but with the following changes: Compounds are diluted in 100% DMSO until final dilution into assay buffer. In the previous assay, compounds are diluted in 50% DMSO. 4.5 mM dithiotherotol (DTT) is added to the polymerase buffer.
# T1 sequence (P08546 whole entry): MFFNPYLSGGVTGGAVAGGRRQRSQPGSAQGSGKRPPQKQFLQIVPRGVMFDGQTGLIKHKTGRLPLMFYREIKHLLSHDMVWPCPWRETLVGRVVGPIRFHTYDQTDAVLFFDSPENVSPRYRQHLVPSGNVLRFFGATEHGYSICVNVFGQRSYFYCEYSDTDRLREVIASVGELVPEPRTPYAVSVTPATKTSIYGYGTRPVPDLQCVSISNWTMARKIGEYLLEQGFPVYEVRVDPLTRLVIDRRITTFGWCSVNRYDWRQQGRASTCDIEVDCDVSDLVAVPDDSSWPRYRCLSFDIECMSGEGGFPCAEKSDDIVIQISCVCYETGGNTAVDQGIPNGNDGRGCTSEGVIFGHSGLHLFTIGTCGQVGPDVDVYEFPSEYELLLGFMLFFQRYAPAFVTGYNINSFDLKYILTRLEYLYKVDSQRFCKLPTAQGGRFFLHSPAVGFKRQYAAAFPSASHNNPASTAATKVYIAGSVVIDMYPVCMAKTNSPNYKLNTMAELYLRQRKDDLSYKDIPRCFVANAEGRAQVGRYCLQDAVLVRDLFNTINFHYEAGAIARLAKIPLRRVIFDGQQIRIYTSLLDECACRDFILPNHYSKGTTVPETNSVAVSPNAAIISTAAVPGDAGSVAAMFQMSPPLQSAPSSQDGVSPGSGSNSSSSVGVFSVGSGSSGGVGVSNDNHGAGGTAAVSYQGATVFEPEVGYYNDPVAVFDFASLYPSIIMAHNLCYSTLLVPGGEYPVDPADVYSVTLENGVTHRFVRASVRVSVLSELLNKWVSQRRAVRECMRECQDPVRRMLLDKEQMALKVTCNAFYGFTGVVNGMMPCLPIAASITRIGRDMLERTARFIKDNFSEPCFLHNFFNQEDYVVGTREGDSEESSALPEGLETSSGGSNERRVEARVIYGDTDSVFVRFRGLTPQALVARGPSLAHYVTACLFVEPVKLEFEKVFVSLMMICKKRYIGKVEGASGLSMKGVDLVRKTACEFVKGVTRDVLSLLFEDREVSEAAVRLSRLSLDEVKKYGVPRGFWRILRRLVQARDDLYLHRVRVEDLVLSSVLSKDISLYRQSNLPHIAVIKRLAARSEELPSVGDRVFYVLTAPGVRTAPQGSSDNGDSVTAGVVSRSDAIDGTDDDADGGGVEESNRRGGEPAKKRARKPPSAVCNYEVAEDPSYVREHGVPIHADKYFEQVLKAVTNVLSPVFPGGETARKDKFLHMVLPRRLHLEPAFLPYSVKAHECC
row,IC50 [µM],Compound
1,1.4,"CCOCCOCCn1cc(C(=O)NCc2ccc(Cl)cc2)c(=O)c2cc(CN3CCOCC3)ccc21 [Example 58, N-(4-Chlorobenzyl)-1-[2-(2-ethoxyethoxy)ethyl]-6-(4-morpholinylmethyl)-4-oxo-1,4-dihydro-3-quinolinecarboxamide]"
2,1.9,"C#CCn1cc(C(=O)NCc2ccc(Cl)cc2)c(=O)c2cc(CN3CCOCC3)ccc21 [Example 59, N-(4-Chlorobenzyl)-6-(4-morpholinylmethyl)-4-oxo-1-(2-propynyl)-1,4-dihydro-3-quinolinecarboxamide]"
3,1.1,"CCSCCn1cc(C(=O)NCc2ccc(Cl)cc2)c(=O)c2cc(CN3CCOCC3)ccc21 [Example 60, N-(4-Chlorobenzyl)-1-[2-(ethylsulfanyl)ethyl]-6-(4-morpholinylmethyl)-4-oxo-1,4-dihydro-3-quinolinecarboxamide]"
4,1.3,"CN(Cc1ccc2c(c1)c(=O)c(C(=O)NCc1ccc(Cl)cc1)cn2C)CC(O)c1ccccc1 (stereo not drawn) [Example 63, N-(4-Chlorobenzyl)-6-{[(2-hydroxy-2-phenylethyl)(methyl)-amino]methyl}-1-methyl-4-oxo-1,4-dihydro-3quinolinecarboxamide]"
5,0.95,O=C(NCc1ccc(Cl)cc1)c1cn(CCN(CCO)CCO)c2ccc(CN3CCOCC3)cc2c1=O [Example 64]
6,1.1,"O=C(NCc1ccc(Cl)cc1)c1cn(CCCSCCCO)c2ccc(CN3CCOCC3)cc2c1=O [Example 66, N-(4-Chlorobenzyl)-1-{3-[(3-hydroxypropyl)sulfanyl]propyl}-6-(4-morpholinylmethyl)-4-oxo-1,4-dihydro-3-quinolinecarboxamide]"
7,0.7,"CS(=O)(=O)CCCn1cc(C(=O)NCc2ccc(Cl)cc2)c(=O)c2cc(CN3CCOCC3)ccc21 [Example 67, N-(4-Chlorobenzyl)-1-[3-(methylsulfonyl)propyl]-6-(4-morpholinylmethyl)-4-oxo-1,4dihydro-3-quinolinecarboxamide]"
8,0.93,"CC[S+]([O-])CCn1cc(C(=O)NCc2ccc(Cl)cc2)c(=O)c2cc(CN3CCOCC3)ccc21 (stereo not drawn) [Example 68, N-(4-Chlorobenzyl)-1-[2-(ethylsulfinyl)ethyl]-6-(4-morpholinylmethyl)-4-oxo-1,4-dihydro-3-quinolinecarboxamide]"
9,0.9,"CCS(=O)(=O)CCn1cc(C(=O)NCc2ccc(Cl)cc2)c(=O)c2cc(CN3CCOCC3)ccc21 [Example 69, N-(4-Chlorobenzyl)-1-[2-(ethylsulfonyl)ethyl]-6-(4-morpholinylmethyl)-4-oxo-1,4-dihydro-3-quinolinecarboxamide]"
10,0.87,O=C(NCc1ccc(Cl)cc1)c1cn(CCC[S+]([O-])CCCO)c2ccc(CN3CCOCC3)cc2c1=O (stereo not drawn) [Example 70]
11,0.8,"O=C(NCc1ccc(Cl)cc1)c1cn(CCCS(=O)(=O)CCCO)c2ccc(CN3CCOCC3)cc2c1=O [Example 71, N-(4-Chlorobenzyl)-1-(3-[(3-hydroxypropyl)sulfonyl]propyl)-6-(4-morpholinylmethyl)-4-oxo-1,4-dihydro-3-quinolinecarboxamide]"
12,3,O=C(NCc1ccc(Cl)cc1)c1cn(CCSc2ccccc2)c2ccc(CN3CCOCC3)cc2c1=O [Example 72]
13,1.1,CSCn1cc(C(=O)NCc2ccc(Cl)cc2)c(=O)c2cc(CN3CCOCC3)ccc21 [Example 73]
14,0.27,"Cn1cc(C(=O)NCc2ccc(Cl)cc2)c(=O)c2cc(CN3CC(O)(O)C3)ccc21 [Example 78, N-(4-Chlorobenzyl)-6-[(3,3-dihydroxy-1-azetidinyl)methyl]-1-methyl-4-oxo-1,4-dihydro-3-quinolinecarboxamide]"
15,1.1,"C[S+]([O-])Cn1cc(C(=O)NCc2ccc(Cl)cc2)c(=O)c2cc(CN3CCOCC3)ccc21 (stereo not drawn) [Example 79, N-(4-Chlorobenzyl)-1-[(methylsulfinyl)methyl]-6-(4-morpholinylmethyl)-4-oxo-1,4-dihydro-3-quinolinecarboxamide]"
16,1.1,"CS(=O)(=O)Cn1cc(C(=O)NCc2ccc(Cl)cc2)c(=O)c2cc(CN3CCOCC3)ccc21 [Example 80, N-(4-Chlorobenzyl)-1-[(methylsulfonyl)methyl]-6-(4-morpholinylmethyl)-4-oxo-1,4-dihydro-3-quinolinecarboxamide]"
17,0.35,"O=C(NCc1ccc(Cl)cc1)c1cn(C[S+]([O-])c2ccccc2)c2ccc(CN3CCOCC3)cc2c1=O (stereo not drawn) [Example 81, N-(4-Chlorobenzyl)-6-(4-morpholinylmethyl)-4-oxo-1-[(phenylsulfinyl)methyl]-1,4-dihydro-3-quinolinecarboxamide]"
18,0.53,"O=C(NCc1ccc(Cl)cc1)c1cn(CS(=O)(=O)c2ccccc2)c2ccc(CN3CCOCC3)cc2c1=O [Example 82, N-(4-Chlorobenzyl)-6-(4-morpholinylmethyl)-4-oxo-1-[(phenylsulfonyl)methyl]-1,4-dihydro-3-quinolinecarboxamide]"
19,0.6,"COCCOCCn1cc(C(=O)NCc2ccc(Cl)cc2)c(=O)c2cc(CCCO)ccc21 [Example 83, N-(4-chlorobenzyl)-6-(3-hydroxypropyl)-1-[2-(2-methoxyethoxy)ethyl]-4-oxo-1,4-dihydro-3-quinolinecarboxamide]"
20,1.2,COCCOCCn1cc(C(=O)NCc2ccc(Cl)cc2)c(=O)c2cc(CN3CCOCC3)ccc21 [Example 84]
21,6,"COCCOCCn1cc(C(=O)NCc2ccc(Cl)cc2)c(=O)c2cc(CN3CCC(=O)CC3)ccc21 [Example 85, N-(4-Chlorobenzyl)-1-[2-(2-methoxyethoxy)ethyl]-4-oxo-6-[(4-oxo-1-piperidinyl)methyl]-1,4-dihydro-3-quinolinecarboxamide]"
22,2.5,"COCCOCCn1cc(C(=O)NCc2ccc(Cl)cc2)c(=O)c2cc(CN(C)CC#N)ccc21 [Example 86, N-(4-Chlorobenzyl)-6-{[(cyanomethyl)(methyl)amino]methyl}-1-[2-(2-methoxyethoxy)ethyl]-4-oxo-1,4-dihydro-3-quinolinecarboxamide]"
23,4,"COCCOCCn1cc(C(=O)NCc2ccc(Cl)cc2)c(=O)c2cc(CN3CC[C@@H](O)C3)ccc21 [Example 87, N-(4-Chlorobenzyl)-6-{[(3R)-3-hydroxypyrrolidinyl]methyl}-1-[2-(2-methoxyethoxy)ethyl]-4-oxo-1,4-dihydro-3-quinolinecarboxamide]"
24,5.9,"COCCOCCn1cc(C(=O)NCc2ccc(Cl)cc2)c(=O)c2cc(CN(C)[C@H](C)[C@@H](O)c3ccccc3)ccc21 [Example 88, N-(4-Chlorobenzyl)-6-{[[(1R,2S)-2-hydroxy-1-methyl-2-phenylethyl](methyl)amino]methyl}-1-[2-(2-methoxyethoxy)ethyl]-4-oxo-1,4-dihydro-3-quinolinecarboxamide]"
25,6.7,"COCCOCCn1cc(C(=O)NCc2ccc(Cl)cc2)c(=O)c2cc(CN(C)CC(O)c3ccccc3)ccc21 (stereo not drawn) [Example 89, N-(4-Chlorobenzyl)-6-{[(2-hydroxy-2-phenylethyl)(methyl)amino]methyl}-1-[2-(2-methoxyethoxy)ethyl]-4-oxo-1,4-dihydro-3-quinoline-carboxamide]"
26,4.4,"COCCOCCn1cc(C(=O)NCc2ccc(Cl)cc2)c(=O)c2cc(CN(C)CC(O)c3ccc(O)cc3)ccc21 (stereo not drawn) [Example 90, N-(4-Chlorobenzyl)-6-{[[2-hydroxy-2-(4-hydroxyphenyl)ethyl](methyl)amino]methyl}-1-[2-(2-methoxyethoxy)ethyl]-4-oxo-1,4-dihydro-3-quinolinecarboxamide]"
27,6.2,"COCCOCCn1cc(C(=O)NCc2ccc(Cl)cc2)c(=O)c2cc(CSC)ccc21 [Example 93, N-(4-Chlorobenzyl)-1-[2-(2-methoxyethoxy)ethyl]-6-[(methylsulfanyl)methyl]-4-oxo-1,4-dihydro-3-quinolinecarboxamide]"
28,0.77,"Cn1cc(C(=S)NCc2ccc(Cl)cc2)c(=O)c2cc(C#CCO)ccc21 [Example 94, N-(4-chlorobenzyl)-6-(3-hydroxy-1-propynyl)-1-methyl4-oxo-1,4-dihydro-3-quinolinecarbothioamide]"
29,0.3,"Cn1cc(C(=S)NCc2ccc(Cl)cc2)c(=O)c2cc(CN3CCOCC3)ccc21 [Example 95, N-(4-Chlorobenzyl)-1-methyl-6-(4-morpholinylmethyl)-4-oxo-1,4-dihydro-3-quinolinecarbothioamide]"

row,Compound,IC50 [µM]
1,"CC(C)(C)OCCOCCn1cc(C(=O)NCc2ccc(Cl)cc2)c(=O)c2cc(CN3CCOCC3)ccc21 [Example 91, 1-{2-[2-(tert-Butoxy)ethoxy]ethyl}-N-(4-chlorobenzyl)-6-(4-morpholinylmethyl)-4-oxo-1,4-dihydro-3-quinolinecarboxamide]",2.1
